According to ChEMBL document CHEMBL4706628, “Ligand-based optimization to identify novel 2-aminobenzo[d]thiazole derivatives as potent sEH inhibitors with anti-inflammatory effects” (Eur J Med Chem, 2021):
Converted amounts (≈) assume the structure as drawn.

Tests used:
[1] = tested on: Mus musculus; test: Antiinflammatory activity in BALB/c mouse model of carrageenan-induced paw edema assessed as paw thickness at 100 mg/kg, ip pretreated for 1 hr followed by carrageenan challenge and measured after 4 hrs by caliper method (reference value: 3.60 +/- 0.12 millimeter); assay type: functional; conditions: time 5 hrs
[2] = target: T1, Bifunctional epoxide hydrolase 2 (Homo sapiens) (UniProt P34913); test: Inhibition of recombinant human sEH at 100 nM using PHOME as substrate measured after 15 mins by fluorescence assay relative to control
T1 sequence (whole entry): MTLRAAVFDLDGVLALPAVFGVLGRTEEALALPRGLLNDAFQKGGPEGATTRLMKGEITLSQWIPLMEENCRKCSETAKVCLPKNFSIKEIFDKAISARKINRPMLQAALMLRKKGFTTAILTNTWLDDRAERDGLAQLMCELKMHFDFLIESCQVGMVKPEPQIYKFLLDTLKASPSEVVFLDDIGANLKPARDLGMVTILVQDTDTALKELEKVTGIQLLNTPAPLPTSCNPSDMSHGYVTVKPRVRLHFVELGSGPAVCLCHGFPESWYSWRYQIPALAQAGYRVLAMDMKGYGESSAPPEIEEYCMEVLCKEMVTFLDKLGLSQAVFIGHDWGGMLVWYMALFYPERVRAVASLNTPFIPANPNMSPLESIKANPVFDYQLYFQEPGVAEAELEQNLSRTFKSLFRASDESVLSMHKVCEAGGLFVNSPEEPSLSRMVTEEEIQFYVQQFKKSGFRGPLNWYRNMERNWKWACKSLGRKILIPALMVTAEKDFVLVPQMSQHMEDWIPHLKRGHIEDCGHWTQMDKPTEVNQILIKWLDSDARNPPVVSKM

[3] = tested on: Mus musculus; test: Antiinflammatory activity in BALB/c mouse model of carrageenan-induced paw edema assessed as paw thickness at 100 mg/kg, ip pretreated for 1 hr followed by carrageenan challenge and measured after 3 hrs by caliper method (reference value: 3.61 +/- 0.36 millimeter); assay type: functional; conditions: time 4 hrs
[4] = tested on: Mus musculus; test: Antiinflammatory activity in BALB/c mouse model of carrageenan-induced paw edema assessed as paw thickness at 100 mg/kg, ip pretreated for 1 hr followed by carrageenan challenge and measured after 1 hr by caliper method (reference value: 3.51 +/- 0.19 millimeter); assay type: functional; conditions: time 2 hrs
[5] = target: T2, Bifunctional epoxide hydrolase 2 (Homo sapiens, UniProt P34913); test: Inhibition of recombinant human sEH using PHOME as substrate measured after 15 mins by fluorescence assay
T2 sequence (P34913 whole entry): T1 sequence (whole entry)

[6] = in vitro; conditions: Sprague-Dawley, rat, liver microsomes
Description: Stability in Sprague-Dawley rat liver microsomes assessed as parent compound remaining at 10 uM measured after 60 mins in presence of NADPH regenerating system by HPLC analysis

[7] = tested on: Mus musculus; test: Antiinflammatory activity in BALB/c mouse model of carrageenan-induced paw edema assessed as paw thickness at 100 mg/kg, ip pretreated for 1 hr followed by carrageenan challenge and measured after 2 hrs by caliper method (reference value: 3.56 +/- 0.29 millimeter); assay type: functional; conditions: time 3 hrs
[8] = tested on: Mus musculus; test: Antiinflammatory activity in BALB/c mouse model of carrageenan-induced paw edema assessed as paw edema at 100 mg/kg, ip pretreated for 1 hr followed by carrageenan challenge and measured after 2 hrs by caliper method relative to control; assay type: functional; conditions: time 3 hrs
[9] = in vitro; conditions: Sprague-Dawley, rat, liver microsomes; remark: listed apart in the source
[10] = tested on: Mus musculus; test: Antiinflammatory activity in BALB/c mouse model of carrageenan-induced paw edema assessed as paw edema at 100 mg/kg, ip pretreated for 1 hr followed by carrageenan challenge and measured after 1 hr by caliper method relative to control; assay type: functional; conditions: time 2 hrs
[11] = tested on: Mus musculus; test: Antiinflammatory activity in BALB/c mouse model of carrageenan-induced paw edema assessed as paw edema at 100 mg/kg, ip pretreated for 1 hr followed by carrageenan challenge and measured after 3 hrs by caliper method relative to control; assay type: functional; conditions: time 4 hrs
[12] = in vitro; conditions: Sprague-Dawley, rat, liver microsomes; remark: listed apart in the source
Description: Stability in Sprague-Dawley rat liver microsomes assessed as parent compound remaining at 10 uM measured after 60 mins in absence of NADPH regenerating system by HPLC analysis

[13] = in vitro; conditions: Sprague-Dawley, rat, liver microsomes; remark: listed apart in the source
Description: Half life in Sprague-Dawley rat liver microsomes at 10 uM measured up to 60 mins in presence of NADPH regenerating system by HPLC analysis

[14] = target: T2, Bifunctional epoxide hydrolase 2; test: Mixed-type inhibition of recombinant human sEH using PHOME as substrate measured after 15 mins by fluorescence based Lineweaver-burk plot analysis
[15] = Solubility of compound in pH 7.4 PBS buffer measured after 2 hrs by turbidimetric assay; assay type: physicochemical
[16] = tested on: Mus musculus; test: Antiinflammatory activity in BALB/c mouse model of carrageenan-induced paw edema assessed as paw edema at 100 mg/kg, ip pretreated for 1 hr followed by carrageenan challenge and measured after 4 hrs by caliper method relative to control; assay type: functional; conditions: time 5 hrs
[17] = in vitro; conditions: Sprague-Dawley, rat, liver microsomes; remark: listed apart in the source
[18] = target: T1, Bifunctional epoxide hydrolase 2 (Homo sapiens); test: Mixed-type inhibition of recombinant human sEH assessed as inhibitor dissociation constant using PHOME as substrate measured after 15 mins by fluorescence based Lineweaver-burk plot analysis
[19] = tested on: HepG2; test: Cytotoxicity against human HepG2 cells assessed as reduction in cell viability measured after 48 hrs by MTT assay; assay type: cell-based; conditions: HepG2, 48 h
[20] = target: T1, Bifunctional epoxide hydrolase 2 (Homo sapiens); test: Potency index, ratio of t-AUCB IC50 to test compound IC50 for recombinant human sEH

With `O=C(Cc1ccccc1)Nc1nc2ccc(N(CCN3CCOCC3)C(=O)Nc3ccc(Cl)cc3)cc2s1` the Activity [1] was 3.3 mm, the inhibition [2] was 84.7% and the Activity [3] was 3.19 mm. It also gave an Activity [4] of 3.33 mm, an IC50 [5] of 0.082 nM and a remaining at 1 h, 10 µM [6] of 0%. The Activity [7] was 3.22 mm, the Activity [8] was 17.58% and the microsomal CLint at 1 h, 10 µM [9] was 1480 µL/min/mg. For the same compound, the Activity [10] was 21.56%, the Activity [11] was 16.48% and the remaining at 1 h, 10 µM [12] was 116%. The half-life at 1 h, 10 µM [13] was 1.7 min, the Ki [14] was 4.77 nM and the solubility kinetic at 2 h [15] was 61 µg/mL (≈ 111 µM). For the same compound, the Activity [16] was 20.32%, the microsomal CLint at 1 h, 10 µM [17] was 820 µL/min/mg and the Kdiss [18] was 23.1 nM. The IC50 [19] was greater than 25000 nM.

For `O=C(Nc1ccc(Cl)cc1)Nc1nc2ccc(N(CCN3CCOCC3)C(=O)Nc3ccc(Cl)cc3)cc2s1`, the Ratio IC50 [20] was 67, the inhibition [2] was 90.2% and the IC50 [5] was 0.1 nM. It also gave a solubility kinetic at 2 h [15] of 30 µg/mL (≈ 51.2 µM).

Compound `Nc1nc2ccc(N(CCN3CCOCC3)C(=O)Nc3ccc(Cl)cc3)cc2s1` has an Activity [1] of 3.17 mm, an inhibition [2] of 89.1% and an Activity [3] of 3.13 mm. For the same compound, the Activity [4] was 3.11 mm, the IC50 [5] was 2.8 nM and the remaining at 1 h, 10 µM [6] was 30.1%. It also gave an Activity [7] of 3.06 mm, an Activity [8] of 19.06% and a microsomal CLint at 1 h, 10 µM [9] of 71.9 µL/min/mg. The Activity [10] was 20.99%, the Activity [11] was 21.64% and the remaining at 1 h, 10 µM [12] was 99.5%. The half-life at 1 h, 10 µM [13] was 34.7 min, the solubility kinetic at 2 h [15] was 39 µg/mL (≈ 90.3 µM) and the Activity [16] was 23.39%. For the same compound, the microsomal CLint at 1 h, 10 µM [17] was 40 µL/min/mg and the IC50 [19] was greater than 25000 nM.

For `Nc1nc2ccc(N(CCN3CCOCC3)C(=O)Nc3ccc(F)c(Br)c3)cc2s1`, the Activity [1] was 3.06 mm, the inhibition [2] was 90.5% and the Activity [3] was 3.06 mm. The Activity [4] was 3.15 mm, the remaining at 1 h, 10 µM [6] was 36.2% and the Activity [7] was 3.16 mm. For the same compound, the Activity [8] was 31.49%, the microsomal CLint at 1 h, 10 µM [9] was 55.8 µL/min/mg and the Activity [10] was 30.86%. For the same compound, the Activity [11] was 27.39%, the remaining at 1 h, 10 µM [12] was 85% and the half-life at 1 h, 10 µM [13] was 44.7 min. It also gave a solubility kinetic at 2 h [15] of 68 µg/mL (≈ 138 µM), an Activity [16] of 27.12% and a microsomal CLint at 1 h, 10 µM [17] of 31 µL/min/mg. The IC50 [19] was greater than 25000 nM.
